Test results taken from patent US8138168B1 (Takeda Pharmaceutical Company Limited, priority 2007, dated 2012).
Blank lines part the entries; values can stand above or below the molecule they belong to.

Target: T1, Recombinant human renin (Homo sapiens, UniProt P00797)
T1 construct: isolate the active form (residues 67-406); made in house; host or cells: FreeStyle 293-F cells (transient expression of pcDNA3.1(+)/hREN)
T1 sequence (P00797 67-406): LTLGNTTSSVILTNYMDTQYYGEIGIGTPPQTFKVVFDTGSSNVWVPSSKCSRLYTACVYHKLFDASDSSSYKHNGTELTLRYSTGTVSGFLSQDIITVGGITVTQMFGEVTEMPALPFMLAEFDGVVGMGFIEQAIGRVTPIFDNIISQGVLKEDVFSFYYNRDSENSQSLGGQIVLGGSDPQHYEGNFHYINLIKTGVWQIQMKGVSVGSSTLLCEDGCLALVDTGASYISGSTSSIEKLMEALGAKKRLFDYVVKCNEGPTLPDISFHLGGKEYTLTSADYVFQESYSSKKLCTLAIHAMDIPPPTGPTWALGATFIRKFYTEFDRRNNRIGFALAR
Assay: In vitro enzymatic activity assay of renin inhibitors (fluorogenic peptide substrate)
Format: biochemical
Conditions: for IC50: read-out: IC50 of Exemplified Compounds Against Renin
Description: Test compounds in varying concentrations may be reacted with recombinant human renin in the presence of substrate, e.g., QXL520-γ-Abu-[…](HiLyteFluo488)-Arg-OH (Anaspec, San Jose, Calif.). […] Inhibition constants (IC50) may be calculated by non-linear curve fitting of the compound concentrations and fluorescence intensities to the standard IC50 equation.
Solutions of test compounds in varying concentrations mM final concentration) are prepared in dimethyl sulfoxide (DMSO) and then diluted into assay buffer comprising 50 mM Hepes, 1 mM EDTA, 1 mM DTT, 0.1 mg/mL BSA, 0.01% Brij35, pH 7.4. Alternatively, the assay can be performed with a high BSA concentration, wherein the buffer contains an additional 2% BSA.
Recombinant human renin (3 nM final concentration) is added to the dilutions and pre-incubated with the compounds for 10 minutes at 37° C. […] After pre-incubation, the reaction is initiated with of substrate QXL520-γ-Abu-[…](HiLyteFluo488)-Arg-OH (Anaspec, San Jose, Calif.). The final DMSO in the assay is 5%. The total volume of the reaction mixture is 20 μL, which can be placed on Greiner 384-well small volume plates.
The fluorescence intensity is determined upon the addition of substrate and determined again after incubation at 37° C. for one hour. The fluorescence intensity of a blank (no inhibition) using vehicle alone is also determined. Renin activity is linearly proportional to the change in fluorescence observed (final-initial).

SMILES: COCCCn1c([C@@H]2CCCN(C(=O)C[C@H](N)Cc3ccc(-c4c(C)noc4C)cc3)C2)nc2ccccc21 [Compound 166, (R)-3-amino-4-(4-(3,5-dimethylisoxazol-4-yl)phenyl)-1-((R)-3-(1-(3-methoxypropyl)-1H-benzo[d]imidazol-2-yl)piperidin-1-yl)butan-1-one]
IC50: 100 to 1000 nM

SMILES: NC(=O)CCn1c([C@@H]2CCCN(C(=O)C[C@H](N)Cc3ccc(-c4ccc(Cl)cc4)cc3)C2)nc2ccccc21 [Compound 489, 3-(2-((R)-1-((R)-3-amino-4-(4′-chlorobiphenyl-4-yl)butanoyl)piperidin-3-yl)-1H-benzo[d]imidazol-1-yl)propanamide]
IC50: > 1000 nM

SMILES: Cc1nc2ccccc2n1[C@@H]1CCCN(C(=O)C[C@H](N)Cc2ccc3ccccc3c2)C1 [Compound 245, (R)-3-amino-1((R)-3-(2-methyl-1H-benzo[d]imidazol-1-yl)piperidin-1-yl)-4-(naphthalen-2-yl)butan-1-one]
Eutomer / distomer designation of the separated stereoisomers (isomers separated by preparative SFC, more or less active isomer as renin inhibitor): Distomer
IC50: > 1000 nM

SMILES: COCCCn1c([C@@H]2CCCN(C(=O)[C@@H]3CN(S(=O)(=O)c4cc(C(F)(F)F)ccc4Cl)C[C@H]3N)C2)nc2ccccc21 [Compound 356, ((3R,4S)-4-amino-1-(2-chloro-5-(trifluoromethyl)phenylsulfonyl)pyrrolidin-3-yl)((R)-3-(1-(3-methoxypropyl)-1H-benzo[d]imidazol-2-yl)piperidin-1-yl)methanone]
IC50: 100 to 1000 nM

SMILES: COCCCn1c([C@@H]2CCCN(C(=O)[C@@H]3CN(C(=O)Nc4ccc(Cl)cc4)C[C@H]3N)C2)nc2ccccc21 [Compound 388, (3S,4R)-3-amino-N-(4-chlorophenyl)-4-((R)-3-(1-(3-methoxypropyl)-1H-benzo[d]imidazol-2-yl)piperidine-l-carbonyl)pyrrolidine-1-carboxamide]
IC50: > 1000 nM

SMILES: COCCCn1c([C@@H]2CCCN(C(=O)C[C@H](N)CNC(=O)NC3CCCC3)C2)nc2ccccc21 [Compound 332, 1-((S)-2-amino-4-((R)-3-(1-(3-methoxypropyl)-1H-benzo[d]imidazol-2-yl)piperidin-1-yl)-4-oxobutyl)-3-cyclopentylurea]
IC50: > 1000 nM

SMILES: N[C@@H](CC(=O)N1CCCC(c2nc3ccccc3[nH]2)C1)c1cccc(Cl)c1 (stereo partly drawn) [Compound 30, (3S)-1-(3-(1H-benzo[d]imidazol-2-yl)piperidin-1-yl)-3-amino-3-(3-chlorophenyl)propan-1-one]
IC50: > 1000 nM

SMILES: COCCCn1c([C@@H]2CCCN(C(=O)C[C@H](N)Cc3ccc(-c4ccc(N(C)C)cc4)cc3)C2)nc2ccccc21 [Compound 161, (R)-3-amino-4-(4′-(dimethylamino)biphenyl-4-yl)-1-((R)-3-(1-(3-methoxypropyl)-1H-benzo[d]imidazol-2-yl)piperidin-1-yl)butan-1-one]
IC50: < 100 nM

SMILES: COCCCn1c([C@@H]2CCCN(C(=O)C[C@H](N)Cc3ccc4ccccc4c3)C2)nc2cc([N+](=O)[O-])ccc21 [Compound 115, (R)-3-arni no-1-((R)-3-(1-(3-methoxypropyl)-5-nitro-1H-benzo[d]imidazol-2-yl)piperidin-1-yl)-4-(naphthalen-2-yl)butan-1-one]
IC50: 100 to 1000 nM

SMILES: O=C([C@@H]1CCCN1C1CCNCC1)N1CCCC(c2nc3ccccc3[nH]2)C1 (stereo partly drawn) [Compound 49, (3-(1H-benzo[d]imidazol-2-yl)piperidin-1-yl)((S)-1-(piperidin-4-yl)pyrrolidin-2-yl)methanone]
IC50: > 1000 nM

SMILES: COCCCn1c([C@@H]2CCCN(C(=O)[C@@H]3CN(S(=O)(=O)c4ccc(C#N)cc4Cl)C[C@H]3N)C2)nc2ccccc21 [Compound 391, 4-((3S,4R)-3-amino-4-((R)-3-(1-(3-methoxypropyl)-1H-benzo[d]imidazol-2-yl)piperidine-1-carbonyl)pyrrolidin-1-ylsulfonyl)-3-chlorobenzonitrile]
IC50: > 1000 nM

SMILES: COCCCn1c([C@@H]2CCCN(C(=O)C[C@H](N)CNC(=O)c3ccccc3)C2)nc2ccccc21 [Compound 317, N-((S)-2-amino-4-((R)-3-(1-(3-methoxypropyl)-1H-benzo[d]imidazol-2-yl)piperidin-1-yl)-4-oxobutyl)benzamide]
IC50: 100 to 1000 nM

Next, values leading:

IC50: > 1000 nM
SMILES: COCCCc1nc2ccccc2n1[C@@H]1CCCN(C(=O)C[C@H](N)Cc2ccc3ccccc3c2)C1 [Compound 243, (R)-3-amino-1-((R)-3-(2-(3-methoxypropyl)-1H-benzo[d]imidazol-1-yl)piperidin-1-yl)-4-(naphthalen-2-yl)butan-1-one]

IC50: > 1000 nM
SMILES: N[C@@H](CC(=O)N1CCCC(c2nc3ccccc3[nH]2)C1)Cc1ccccc1Cl (stereo partly drawn) [Compound 27, (3R)-1-(3-(1H-benzo[d]imidazol-2-yl)piperidin-1-yl)-3-amino-4-(2-chlorophenyl)butan-1-one]

IC50: 100 to 1000 nM
SMILES: COCCCn1c([C@@H]2CCCN(C(=O)C[C@H](N)CNC(=O)c3ccc(Cl)c(Cl)c3)C2)nc2ccccc21 [Compound 262, N-((S)-2-amino-4-((R)-3-(1-(3-methoxypropyl)-1H-benzo[d]imidazol-2-yl)piperidin-1-yl)-4-oxobutyl)-3,4-dichlorobenzamide]

IC50: > 1000 nM
SMILES: COCCCn1c([C@@H]2CCCN(C(=O)[C@@H]3CN(S(=O)(=O)c4cc(Cl)ccc4OC)C[C@H]3N)C2)nc2ccccc21 [Compound 412, ((3R,4S)-4-amino-1-(5-chloro-2-methoxyphenylsulfonyl)pyrrolidin-3-yl)((R)-3-(1-(3-methoxypropyl)-1H-benzo[d]imidazol-2-yl)piperidin-1-yl)methanone]

IC50: < 100 nM
SMILES: COCCCn1c([C@@H]2CCCN(C(=O)C[C@H](N)Cc3ccc(-c4ccc(C(=O)NCCO)cc4)cc3)C2)nc2ccccc21 [Compound 182, 4′-((R)-2-amino-4-((R)-3-(1-(3-methoxypropyl)-1H-benzo[d]imidazol-2-yl)piperidin-1-yl)-4-oxobutyl)-N-(2-hydroxyethyl)biphenyl-4-carboxamide]

IC50: 100 to 1000 nM
SMILES: COCCCn1c([C@@H]2CCCN(C(=O)C[C@H](N)CNS(=O)(=O)c3ccc(Cl)cc3)C2)nc2ccccc21 [Compound 281, N-((S)-2-amino-4-((R)-3-(1-(3-methoxypropyl)-1H-benzo[d]imidazol-2-yl)piperidin-1-yl)-4-oxobutyl)-4-chlorobenzenesulfonamide]

IC50: 100 to 1000 nM
SMILES: COCCCn1c([C@@H]2CCCN(C(=O)[C@@H]3CN(S(=O)(=O)c4cc(Cl)ccc4Cl)C[C@H]3N)C2)nc2ccccc21 [Compound 343, ((3R,4S)-4-amino-1-(2,5-dichlorophenylsulfonyl)pyrrolidin-3-yl)((R)-3-(1-(3-methoxypropyl)-1H-benzo[d]imidazol-2-yl)piperidin-1-yl)methanone]

IC50: < 100 nM
SMILES: COC(=O)Nc1ccc(-c2ccc(C[C@@H](N)CC(=O)N3CCC[C@@H](c4nc5ccccc5n4CCNC(C)=O)C3)cc2)cc1 [Compound 457, methyl 4′-((R)-4-((R)-3-(1-(2-acetamidoethyl)-1H-benzo[d]imidazol-2-yl)piperidin-1-yl)-2-amino-4-oxobutyl)biphenyl-4-ylcarbamate]

IC50: 100 to 1000 nM
SMILES: COCCCn1c([C@@H]2CCCN(C(=O)C[C@H](N)CNC(=O)Nc3ccccc3OC(F)F)C2)nc2ccccc21 [Compound 274, 1-((S)-2-amino-4-((R)-3-(1-(3-methoxypropyl)-1H-benzo[d]imidazol-2-yl)piperidin-1-yl)-4-oxobutyl)-3-(2-(difluoromethoxy)phenyl)urea]

IC50: > 1000 nM
SMILES: O=C(C1CNC1)N1CCCC(c2nc3ccccc3[nH]2)C1 (centres unmarked) [Compound 55, (3-(1H-benzo[d]imidazol-2-yl)piperidin-1-yl)(azetidin-3-yl)methanone]

IC50: 100 to 1000 nM
SMILES: COCCCn1c([C@@H]2CCCN(C(=O)C[C@H](N)Cc3ccc(-c4cnc(C)n4C)cc3)C2)nc2ccccc21 [Compound 204, (R)-3-amino-4-(4-(1,2-dimethyl-1H-imidazol-5-yl)phenyl)-1-((R)-3-(1-(3-methoxypropyl)-1H-benzo[d]imidazol-2-yl)piperidin-1-yl)butan-1-one]

IC50: 100 to 1000 nM
SMILES: COCCCn1c([C@@H]2CCCN(C(=O)C[C@H](N)CNC(=O)Nc3ccccc3C(C)(C)C)C2)nc2ccccc21 [Compound 302, 1-((S)-2-amino-4-((R)-3-(1-(3-methoxypropyl)-1H-benzo[d]imidazol-2-yl)piperidin-1-yl)-4-oxobutyl)-3-(2-tert-butylphenyl)urea]

IC50: > 1000 nM
SMILES: COCCCn1c([C@@H]2CCCN(C(=O)[C@@H]3CN(C(=O)N4CCCC4)C[C@H]3N)C2)nc2ccccc21 [Compound 417, ((3R,4S)-4-amino-1-(pyrrolidine-1-carbonyl)pyrrolidin-3-yl)((R)-3-(1-(3-methoxypropyl)-1H-benzo[d]imidazol-2-yl)piperidin-1-yl)methanone]
